Test results reported in US20250241942A1, “METHODS OF SYNTHESIZING CONDUCTIVE POLYMERS IN BIOLOGICAL SYSTEMS AND METHODS OF USING CONDUCTIVE POLYMERS” (Purdue Research Foundation, priority 2024, published 2025).
Where two headings read alike, the source gives them in different places.

Experiments:
[1] = system: primary motor cortex (M1); parameters: species or system mice; conditions: mouse, in vivo
A549 lung cancer cells = format: cell-based
Source text: Because the BDF monomer can lyse the RBCs, the cytotoxicity of the BDF monomer and n-PBDF in A549 lung cancer cells was further studied. It was observed that the n-PBDF polymer is non-toxic to cancer cells, with cell viability remaining close to 100% regardless of the polymer concentration. […] Although the BDF monomer is toxic in cancer cells, it may not impede the in vivo polymerization process, as once the polymerization reaction begins, the toxicity quickly diminishes.

[2] = Subcutaneous administration of BDF and n-PBDF solutions in mice, observation and complete blood count; conditions: mouse, in vivo, sc
Source text: Furthermore, the non-toxicity of the polymerization process and the resulting polymer was confirmed by subcutaneously administering BDF and n-PBDF solutions in mice. […] The investigations reported below explored the use of n-PBDF to modulate the neural activity of cortical pyramidal neurons in mice acute brain slices, showing the interaction of n-PBDF with the neurons at a cellular level, leading to a decrease in the intrinsic excitability of the neurons. […] These and other aspects of the method will be more fully appreciated from the following discussion of the investigations.

zebrafish embryos = experiment: BDF injection into the vasculature of zebrafish embryos, in vivo polymerization and viability
Description: Finally, BDF monomer with 1% w/w TPGS in the PBS media solution was injected in the vasculature of 3-day post-fertilization zebrafish embryos to validate the whole blood catalyzed in vivo polymerization of BDF to synthesize n-PBDF. The fish embryos were injected at the end of the tail (FIG. 5A) with different BDF concentrations from 1 mM to 15 mM and kept inside an incubator at 34° C. […] To prevent the misconception of pigmentation in the skin of the embryos as a darkened yolk, zebrafish embryos were treated with 1-phenyl 2-thiourea (PTU). PTU treatment removed the pigment from the skin, allowing for better visualization of the darkening of the embryo's yolk (FIG. 5C). In the case of a 1 mM BDF concentration injection, a clear yolk was observed similar to that seen in control zebrafish embryos. Significant darkening happened when the concentration was increased to 10 mM. Furthermore, 15 mM BDF concentration was injected into the zebrafish embryo, where the yolk was even darker with respect to the 10 mM BDF concentration injection. To characterize the darkened yolk, UV-Vis-NIR measurements were collected on all zebrafish embryos with different concentrations of BDF injections along with the control fish (only PBS injection). […]

[3] = Solubility of BDF monomer; format: physicochemical
Source text: Though existing methods of synthesizing n-PBDF are efficient, they are unsuitable within living systems. […] Existing synthesis methods also require high temperatures and employ dimethyl sulfoxide (DMSO) as a solvent. To overcome this limitation, methods were investigated for synthesizing n-PBDF in aqueous media using surfactants, which are also utilized in the synthesis of conductive polymer nanoparticles. […] Using TPGS as a surfactant, n-PBDF can be polymerized in aqueous media through emulsion polymerization. By incorporating an insignificant amount (5%) of DMSO and 1% w/w TPGS, this method was found suitable for use in biological systems, as discussed below.

red blood cells = experiment: Hemolysis assay on reaction components; format: cell-based; conditions: 0.2 mg/mL
Description: To evaluate the efficacy of polymerization without the need for constant stirring, a method was employed whereby the solution was placed in an incubator with a rocker at 37° C. Upon introduction of whole blood into the reaction vessel without stirring, a sluggish reaction was observed, and the vessel turned black after three hours into the reaction. […] Based on these observations from the reaction without stirring, it was deduced the lysis of the RBCs with the BDF monomer. To confirm, a hemolysis assay was used on the various reaction components and with different BDF concentrations. […] This explained the initial slow reaction and formation of n-PBDF without stirring.

| Compound | retention at the injection site [1] | cell viability (A549 lung cancer cells) | complete blood count (CBC), signs of acute toxicity [2] | physical stress or discomfort [2] | cell viability (A549 lung cancer cells; human, 72 h, 5 μg/mL) | cell viability (A549 lung cancer cells; human, 72 h, 0.167 mg/mL) | embryos alive (zebrafish embryos; after 24 h incubation, BDF 1 mM to 15 mM, 34° C.) | toxicity of BDF injection and in vivo polymerization (zebrafish embryos; zebrafish embryos) | solubility in aqueous media ([3]; aqueous media) | solubility in organic solvents ([3]; organic solvents) | hemolysis (red blood cells) |
| --- | --- | --- | --- | --- | --- | --- | --- | --- | --- | --- | --- |
| n-doped poly(3,7-dihydrobenzo[1,2-b:4,5-b′]difuran-2,6-dione [n-PBDF] | remained in the injection site for extended periods | ~100% |  |  |  |  |  |  |  |  |  |
| O=C1Cc2cc3c(cc2O1)CC(=O)O3 [BDF, 3,7-dihydrobenzo[1,2-b:4,5-b′]difuran-2,6-dione] |  | slightly improved cell viability at higher concentrations | no signs of acute toxicity except for a minor level of hemolysis | No physical stress or discomfort was observed | approximately 75% | around 10% | at least 80% | almost no toxicity | insoluble | limited solubility | approximately 40% |
